Series [1] relates to MDA-MB-231 cells. The series can be described thus: Cellular internalization of Alexa Fluor 488-labeled siRNA by flow cytometry. Format: cell-based. As to conditions: 24 h; for Increase in cellular uptake of siRNA compared to free siRNA: MDA-MB-231, N/P 40, Alexa-488 siRNA 50 nM, flow cytometry mean fluorescence intensity. How it is done:
The cellular uptake of siRNA complexed with oleyl conjugated peptides was evaluated using flow cytometry (BD-FACSVerse; BD Biosciences, San Jose, CA, USA) in live cells. Alexa fluor 488-labeled scrambled siRNA was used for making complexes with oleyl conjugated peptides. The peptide-siRNA complexes were made at N/P 40; the final concentration of siRNA in each complex was 50 nM. The study was performed on MDA-MB-231 according to the protocol described by Mandal et al.. Briefly, approximately 500,000 cells were seeded in each well of the six-well plates and were allowed to settle for 24 h. The cells were treated with the conjugate-siRNA complexes (N/P 40) and were incubated in a humidified atmosphere of 5% CO2 and 95% air at 37 °C for 24 h. After 24 h of treatment, the cells were washed three times with HBBS and were trypsinized. The suspended cells were centrifuged for 5 min at 1000 rpm (96× g) at 4 °C, and the cells pellet was washed with HBSS three times to remove any traces of the medium. Finally, the cells were resuspended in PBS and analyzed by flow cytometer using Alexa-Fluor-488 channel to quantify the mean fluorescence intensity. The mean fluorescent intensity in the treated cells was calculated for each sample based on the calibration of the signal gated with nontreated cells, serving as a negative control. Alexa-488 labeled scrambled siRNA served as a second negative control, and lipofectamine-siRNA treated cells were used as a positive control.

Series [2] can be described thus: Dynamic light scattering, hydrodynamic diameter and PDI of peptide-siRNA complexes. The series is classed as physicochemical. The note with it: DLS, 25 °C, peptide-siRNA complex at N/P 40, siRNA 50 nM, HBSS, mean of three independent experiments; for Z-Ave (hydrodynamic diameter): Malvern Nano ZS Zetasizer. From the text:
The complex of oleyl conjugated peptides and siRNA was formed through physical mixing. Appropriate volumes of oleyl conjugated peptides and siRNA solution were mixed in Hank’s balanced salt solution (HBSS) buffer to obtain the complexes. The oleyl conjugated peptide-siRNA complexes were formed due to ionic interaction between positively charged arginine residues of the conjugates and the negatively charged phosphate groups of siRNAs. […] The N to P ratio is commonly used where N represents the number of moles of ionizable nitrogen in the delivery agent. In contrast, P refers to the number of moles of phosphates present in siRNA. The ratio is calculated using the following formula. N/P=number of moles pf peptidex number of ionized nitrogen atoms/(number of moles of siRA ×48)
The peptide-siRNA complexes were characterized using the dynamic light scattering (DLS) technique. Malvern Nano ZS Zetasizer (Westborough, MA, USA) was used to determine the hydrodynamic diameter and surface charge of the complexes at 25 °C. The zeta potential of the complexes was determined at 40 V using disposable folded capillary cells (DTS1070). The calibration of the instrument was performed by transfer standard DTS 1235. The disposable cuvettes were used for determining the hydrodynamic diameter. The N/P ratio 40 was selected for performing the dynamic light scattering experiment. At this N/P ratio, the final concentration of siRNA in the complex was 50 nM whereas the concentration of oleyl-(HR)4 was 24 µM, oleyl-R1-(HR)4 was 19.20 µM, oleyl-R2-(HR)4 was 16 µM, oleyl-R3-(HR)4 was 13.71 µM, oleyl-R4-(HR)4 was 12 µM, and oleyl-R5-(HR)4 was 10.67 µM. The final volume of the complex used for performing zeta potential was 750 µL. The measurements were performed in triplicate, where each measurement consisted of 20 runs. The zeta potential values were calculated using the Smoluchowski model. All the results passed the quality standard of the instrument.
Particle size was also determined at N/P 40 with the same concentrations of siRNA and oleyl conjugated peptides as described above. The experiments were performed in triplicate on each sample with an automatic attenuator setting. The results were checked with the quality standards of the instruments and were represented as mean ± SD of three independent experiments.

The test system of the next series is STAT-3. The series can be described thus: STAT-3 protein silencing by peptide/STAT-3 siRNA complexes (Western blot). Format: cell-based. The note with it: MDA-MB-231, N/P 40, STAT-3 siRNA 50 nM, 48 h; for STAT-3 expression: GAPDH housekeeping. How it is done: STAT-3 is an essential protein overexpressed in several cancer types, including breast cancer. The silencing effect of the STAT-3 siRNA delivered via oleyl conjugated peptides was determined by checking the expression of STAT-3 in peptide-siRNA complex treated cells. Expression of STAT-3 in nontreated cells served as a negative control, whereas the commercially used transfection agent lipofectamine (20 µg/mL) complexed with STAT-3 siRNA (50 nM) served as the positive control. STAT-3 expression was evaluated by the Western blotting experiment. Approximately 500,000 MDA-MB-231 cells were seeded in T-25 flasks and incubated at 37 °C under standard growth conditions. After 24 h, the cells were treated with peptide-siRNA complexes at N/P 40 for 48 h. The final siRNA concentration at this N/P was 50 nM. After 48 h of treatment, MDA-MB-231 cell lysates were prepared according to the standard protocol using RIPA buffer; the cell lysates were then incubated on ice for 1 h, during which the tubes were sonicated for 3 min after every 10 min. Following sonication for 1 h to ensure the complete lysis of cells, the tubes were centrifuged for 15 min at 12,000 rpm (RCF = 13,870× g) at 4 °C. The supernatant from the centrifuged tubes was transferred to a fresh set of pre-cooled microtubes, and the total protein concentration was determined using […]. Briefly, 200 μL of working reagent (50:1 A:B) was added to 25 μL of standard and unknown samples in triplicate into a 96-well plate, and the sample was mixed on a plate shaker for 30 s. The plate was then incubated at 37 °C and 5% CO2 for 30 min. After half an hour of incubation, the absorbance was measured at 562 nm using a Spectra MAX M5 microplate reader. The protein in each treatment sample was quantified using the BSA standard curve. A total of 15 µg of the protein was loaded per well in a 10% Mini-PROTEAN® TGX Stain-Free. Protein gel electrophoresis was performed in buffer (0.192 M glycine, 25 mM Tris, 0.1% SDS) for 30 min at 200 V. The gel was then transferred to Mini PVDF membrane (Catalog no. 1704156) using Trans-Blot® Turbo (Bio-Rad, Hercules, CA, USA). The membrane was blocked in BSA 5% for 3 h and then incubated at 4 °C overnight with the primary antibody (1:1000 in TBS-T). The membrane was then washed with TBS-T six times (5 min each time) and was subsequently incubated with the secondary HRP-linked antibody (1:1000 in TBS-T) for 1 h, followed by the washing steps. The detection of the bands was done by ECL Detect Kit using a ChemiDoc imager (Bio-Rad, Hercules, CA, USA). The bands were quantified using Image Lab™ software of ChemiDoc imager.
In general terms: In western blotting, separated proteins are transferred to a membrane and probed.

The subject of series [3] is MDA-MB-231 cells. Briefly: Cellular uptake of siRNA by confocal microscopy. As to conditions: MDA-MB-231, fixed cells, N/P 40, siRNA 50 nM, 24 h. Format: cell-based. How it is done: Confocal microscopy was used to corroborate the data obtained from flow cytometry. There have been reports for using fixed cells or live cells for imaging the cellular uptake of siRNA. We adopted the protocol of Aliabadi et al. to perform the confocal microscopy. Briefly, approximately 400,000 MDA-MB-231 cells were seeded on coverslips in 6-well plates and were allowed to settle for 24 h. After 24 h, the cells were visualized under an ordinary microscope for their health and confluency. Peptide-siRNA complexes at N/P ratio 40 were made containing a final concentration of 50 nM of siRNA, and the cells were treated with these complexes. Nontreated cells served as negative control while lipofectamine-siRNA complexes were used as a positive control. After 24 h of treatment, the cells grown on coverslips were washed 3 times with HBSS and fixed with 3.7% formaldehyde solutions solution for 30 min at room temperature. The […] of the cells were stained with Texas Red (TR) Phalloidin (Invitrogen) (1:250 in HBSS), while the nuclei of the cells were stained with 4′,6-diamidino-2-phenylindole (DAPI). Nikon A1R confocal microscope system was used to image the fixed cells at 60X objective and different filters for Alexa-488 (FITC), DAPI, and TR.

Where [4] appears, read: MDA-MB-231, N/P 40, siRNA 50 nM, flow cytometry, n = 3.

For Oleyl-(HR)4-OH, the “Mean fluorescent intensity compared with Alexa-488 siRNA treated cells” value in the series on MDA-MB-231 cells [1] (setting [4]) is recorded as “nonsignificant difference in intensity”. In series [2], the “PDI (polydispersity index)” value was 0.213 and the “Z-Ave (hydrodynamic diameter)” value is 120.1 nm·days.
For the substance Oleyl-R-(HR)4-OH [Oleyl-R1-(HR)4], in the series with MDA-MB-231 cells [1] (setting [4]), the “Mean fluorescent intensity compared with Alexa-488 siRNA treated cells” value was “nonsignificant difference in intensity”. For the same substance, in series [2], the “PDI (polydispersity index)” value is reported as 0.201 and the “Z-Ave (hydrodynamic diameter)” value was determined as 116.9 nm·days.
For the substance Oleyl-RR-(HR)4-OH [Oleyl-R2-(HR)4], in the series with STAT-3, the “Reduction (inhibition) in STAT-3 expression” value (shortened to “Reduction (inhibition)”) is reported as ~ 68% and the STAT-3 expression is ~ 68%. In series [2], the “PDI (polydispersity index)” value is 0.217 and the “Z-Ave (hydrodynamic diameter)” value stood at 115.6 nm·days.
Regarding Oleyl-RRR-(HR)4-OH [Oleyl-R3-(HR)4], in the series with STAT-3, the “Reduction (inhibition)” value was ~ 55% and the STAT-3 expression was ~ 55%. For the same substance, the “Increase in cellular uptake of siRNA compared to free siRNA” value with MDA-MB-231 cells [1] is given as ~ 80 fold. For the same substance, in series [2], the “PDI (polydispersity index)” value was 0.229 and the “Z-Ave (hydrodynamic diameter)” value came to 117 nm·days.
Regarding Oleyl-RRRR-(HR)4-OH [Oleyl-R4-(HR)4], in the series on STAT-3, the “Reduction (inhibition)” value is given as ~ 41% and the STAT-3 expression is reported as ~ 41%. Further, the “Increase in cellular uptake of siRNA compared to free siRNA” value with MDA-MB-231 cells [1] is on record as ~ 80 fold. Also, in series [2], the “PDI (polydispersity index)” value was determined as 0.237 and the “Z-Ave (hydrodynamic diameter)” value stood at 115.2 nm·days. In addition, the “Green fluorescence (Alexa-488 siRNA) in confocal images” value in the series on MDA-MB-231 cells [3] is reported as “comparable green fluorescence”.
As for “Oleyl-RRRRR-(HR)4-OH [Oleyl-R5-(HR)4, oleyl conjugated peptide with five R residues between oleyl and (HR)4]”, in the series on STAT-3, the “Reduction (inhibition)” value is recorded as ~ 80% and the STAT-3 expression was ~ 20%. Also, the “STAT-3 inhibition compared with Lipofectamine 2000” value with STAT-3 (three independent experiments) was “comparable inhibition”. In the series on MDA-MB-231 cells [1] (setting [4]), the “Cellular uptake compared with lipofectamine” value is “nonsignificant difference” and the “Cellular uptake of siRNA within the series” value was “maximum cellular uptake”. For the same substance, in series [2], the “PDI (polydispersity index)” value was found to be 0.213 and the “Z-Ave (hydrodynamic diameter)” value came to 115.6 nm·days. In addition, the “Green fluorescence (Alexa-488 siRNA) in confocal images” value in the series on MDA-MB-231 cells [3] is “comparable green fluorescence”.

These data come from paper PMC9028392, “Oleyl Conjugated Histidine-Arginine Cell-Penetrating Peptides as Promising Agents for siRNA Delivery” (Pharmaceutics, 2022).
